According to the NIST ThermoML archive (doi:10.1016/j.jct.2013.12.016):
± gives the expanded uncertainty stated by the source.

Columns and labels:
[1] = DTA
[2] = Molar enthalpy of transition or fusion; conditions: DSC

Compound	Triple point temperature ([1]; Crystal) [K]	Molar enthalpy of transition or fusion ([2]; Crystal) [kcal/mol]	Triple point temperature ([1]; Crystal 1) [K]	Triple point temperature ([1]; Crystal 2) [K]	Molar enthalpy of transition or fusion ([2]; Crystal 1) [kcal/mol]	Molar enthalpy of transition or fusion ([2]; Crystal 2) [kcal/mol]
CNC(=O)[C@@H]1CCCN1C(C)=O [(2S)-1-acetyl-N-methyl-2-pyrrolidinecarboxamide]	375.85 ± 0.39	5.96 ± 0.134	–	–	–	–
CNC(=O)[C@H](C)NC(C)=O [(S)-2-acetamido-N-methylpropanamide]	–	–	454.8 ± 0.39	395.07 ± 0.41	5.94 ± 0.134	1.34 ± 0.0454
CNC(=O)CNC(C)=O [2-acetamido-N-methylacetamide]	430.73 ± 0.39	5.65 ± 0.129	–	–	–	–
CNC(=O)C(C)NC(C)=O (stereo unspecified) [2-acetamido-N-methylpropanamide]	–	–	411.9 ± 2	368.43 ± 0.39	3.8 ± 0.115	1.84 ± 0.0765
CC[C@H](C)[C@H](NC(C)=O)C(=O)NC (racemic) [N-acetyl-N'-methyl-DL-isoleucinamide]	482.02 ± 0.39	6.48 ± 0.143	–	–	–	–
CC[C@H](C)[C@H](NC(C)=O)C(=O)NC [(2S,3S)-2-acetamido-N,3-dimethylpentanamide]	525.72 ± 0.39	9.11 ± 0.21	–	–	–	–
CNC(=O)[C@H](CC(C)C)NC(C)=O [(S)-2-acetamido-N,4-dimethylpentanamide]	438.2 ± 0.39	5.54 ± 0.127	–	–	–	–
CCCC(NC(C)=O)C(=O)NC (racemic) [N-acetyl-N'-methyl-DL-norvalinamide]	432.29 ± 0.39	6.27 ± 0.143	–	–	–	–
CCCCC(NC(C)=O)C(=O)NC (stereo unspecified) [2-acetamido-N-methylhexanamide]	444 ± 0.39	8.21 ± 0.177	–	–	–	–
CNC(=O)C1CCCN1C(C)=O (stereo unspecified) [1-acetyl-N-methylprolinamide]	378.12 ± 0.39	6.23 ± 0.139	–	–	–	–
CCC(NC(C)=O)C(=O)NC (stereo unspecified) [2-acetamido-N-methylbutanamide]	434.83 ± 0.4	5.91 ± 0.134	–	–	–	–
